Data as given in patent publication US20230346745A1, “AGENT FOR PREVENTING OR TREATING TAUOPATHY” (FUJIFILM Toyama Chemical Co., Ltd., priority 2017, published 2023).

Tests used:
Type in all cases: in vivo, human
[1] = test system: total tau protein (total-Tau); assay: Phase II placebo-controlled trial: cerebrospinal fluid biomarker total-Tau (ECL method, measured twice); conditions: CSF, AD patients; for total-Tau change at week 52 from baseline, difference from placebo group / total-Tau change at week 52 from baseline, least square means (standard error): First measurement (Table 2); for total-Tau (remeasured) change at week 52 from baseline, difference from placebo group / total-Tau (remeasured) change at week 52 from baseline, least square means (standard error): Total-Tau concentration remeasured (Table 3)
Text: (§1) Test Example 1 Multicenter randomized double-blind phase II placebo-controlled trial for assessing effectiveness and safety of Compound A in mild to moderate AD patients Subject (selection criteria): Patients were screened in a period from 42 days before treatment assignment to the assignment based on the following selection criteria. • Patients who were probable AD and are 55 years old or older and 85 years old or younger at the time of obtaining consent of screening. • Patients with an MMSE score of 12 to 22 at the time of screening • Patients with a Modified Hachinski Ischemia Scale score of 4 or less • Patients who have been treated with a donepezil hydrochloride or rivastigmine transdermal system for at least 4 months before the baseline and with a stable dose thereof for 3 months before the baseline. • In the case of patients who have received memantine in addition to being treated with a donepezil hydrochloride or rivastigmine transdermal system, patients who have been treated with memantine for at least 4 months before the baseline and with a stable dose thereof for 3 months before the baseline. • Patients whose brain MRI or CT results match AD at the time of screening Organization of groups: Patients matched (484 patients) were randomly divided into the following 3 groups and the trial was started. (1) High dose group: 224 mg of a test compound (160 mg in terms of Compound A) was orally administered once a day for 4 weeks and then 448 mg of a test compound (320 mg in terms of Compound A) was orally administered once a day for 48 weeks (158 patients) (2) Low dose group: 224 mg of a test compound (160 mg in terms of Compound A) was orally administered once a day for 52 weeks (166 patients) (3) Placebo group: placebo was orally administered once a day for 52 weeks (158 patients) Method of assessment: Cerebrospinal fluid biomarker
(§2) Cerebrospinal fluid was collected by lumber puncture from subjects at baseline (within 2 weeks before the first day of administration of investigational drug) and after 52 weeks (within 2 weeks before week 52), and divided into 9-ml aliquots in polyethylene tubes and stored at -80° C. The total tau protein concentration (total-Tau) in the cerebrospinal fluid was measured by an ECL method. The phosphorylated tau protein concentration (p-Tau) was measured by ELISA method. The Aβ-42 value in the cerebrospinal fluid was measured by sandwich ELIZA which has been designed for measurement of AP including 1 amino acid and 42 amino acids.
(§3) The total-Tau concentration was measured twice using the same cerebrospinal fluid sample.
(§4) Change in cerebrospinal fluid (CSF) biomarkers at week 52 from the baseline was compared by analysis of covariance between a high dose group and a placebo group, and between a low dose group and the placebo group. For models, the baseline of cerebrospinal fluid (CSF) biomarkers was included as a covariate and the significance level was 5%.

[2] = test system: Aβ; assay: Phase II placebo-controlled trial: concentration of Aβ in cerebrospinal fluid (overall statement); conditions: Compound A group compared to the placebo group; mild to moderate AD patients
Text: as §1, with “(1) High dose group: 224 mg of a test compound (160 mg in terms of Compound A) was orally administered once a day for 4 weeks and then 448 mg of a test compound (320 mg in terms of Compound A) was orally administered once a day for 48 weeks (158 patients) (2) Low dose group: 224 mg of a test compound (160 mg in terms of Compound A) was orally administered once a day for 52 weeks (166 patients) (3) Placebo group: placebo was orally administered once a day for 52 weeks (158 patients) Method of assessment: Cerebrospinal fluid biomarker” left out

[3] = test system: p-Tau/total-Tau; assay: Phase II placebo-controlled trial: ratio p-Tau/total-Tau in cerebrospinal fluid; conditions: CSF, AD patients; for p-Tau/total-Tau change at week 52 from baseline, difference from placebo group / p-Tau/total-Tau change at week 52 from baseline, least square means (standard error): First total-Tau measurement (Table 2); for p-Tau/total-Tau (remeasured total-Tau) change at week 52 from baseline, difference from placebo group / p-Tau/total-Tau (remeasured total-Tau) change at week 52 from baseline, least square means (standard error): Total-Tau concentration remeasured (Table 3)
Text: as §1, §2, §3, §4

[4] = test system: Aβ-38; assay: Phase II placebo-controlled trial: cerebrospinal fluid biomarker Aβ-38; conditions: CSF, mild to moderate AD patients
Text: as §1, §2
(§5) Change in cerebrospinal fluid (CSF) biomarkers at week 52 from the baseline was compared by analysis of covariance between a high dose group and a placebo group, and between a low dose group and the placebo group. […]

[5] = test system: Aβ-42; assay: Phase II placebo-controlled trial: cerebrospinal fluid biomarker Aβ-42 (sandwich ELISA); conditions: CSF, mild to moderate AD patients
Text: as §1, §2, §5

[6] = test system: phosphorylated tau protein (p-Tau); assay: Phase II placebo-controlled trial: cerebrospinal fluid biomarker p-Tau (ELISA); conditions: for p-Tau change at week 52 from baseline, difference from placebo group / p-Tau change at week 52 from baseline, least square means (standard error): CSF
Text: as §1, §2, §4

[7] = test system: Aβ-40; assay: Phase II placebo-controlled trial: cerebrospinal fluid biomarker Aβ-40; conditions: CSF, mild to moderate AD patients
Text: as §1, §2, §5

[8] = High dose group: 160 mg 4 weeks then 320 mg 48 weeks in terms of Compound A, oral once a day
[9] = Low dose group: 160 mg in terms of Compound A, oral once a day 52 weeks
[10] = High dose group: 160 mg 4 weeks then 320 mg 48 weeks in terms of Compound A, oral once a day, mild to moderate AD patients
[11] = Low dose group: 160 mg in terms of Compound A, oral once a day 52 weeks, mild to moderate AD patients

For `OC1CN(CCCOCCc2ccc3sccc3c2)C1` [Compound A, 1-(3-(2-(1-benzothiophen-5-yl)ethoxy)propyl)azetidin-3-ol], the “total-Tau change at week 52 from baseline, difference from placebo group” value [1, 8] was 81.94 pg/mL, the “total-Tau change at week 52 from baseline, least square means (standard error)” value [1, 8] was 11.38(47.304) pg/mL and the “total-Tau change at week 52 from baseline, difference from placebo group” value [1, 9] was 28.19 pg/mL. For the same compound, the “total-Tau change at week 52 from baseline, least square means (standard error)” value [1, 9] was −42.36(63.947) pg/mL, the “total-Tau (remeasured) change at week 52 from baseline, difference from placebo group” value [1, 8] was -129.57 pg/mL and the “total-Tau (remeasured) change at week 52 from baseline, least square means (standard error)” value [1, 8] was −101.35 (32.552) pg/mL. For the same compound, the “total-Tau (remeasured) change at week 52 from baseline, difference from placebo group” value [1, 9] was -36.10 pg/mL, the “total-Tau (remeasured) change at week 52 from baseline, least square means (standard error)” value [1, 9] was −7.88 (38.632) pg/mL and the “change in the concentration of AP in the cerebrospinal fluid at week 52 from the baseline” value [2] was “tended to be increased in a dose dependent manner”. For the same compound, the “p-Tau/total-Tau change at week 52 from baseline, difference from placebo group” value [3, 8] was −11.11%, the “p-Tau/total-Tau change at week 52 from baseline, least square means (standard error)” value [3, 8] was −4.47(3.21) % and the “p-Tau/total-Tau change at week 52 from baseline, difference from placebo group” value [3, 9] was −4.60%. The “p-Tau/total-Tau change at week 52 from baseline, least square means (standard error)” value [3, 9] was 2.04(4.33) %, the “p-Tau/total-Tau (remeasured total-Tau) change at week 52 from baseline, difference from placebo group” value [3, 8] was 0.26% and the “p-Tau/total-Tau (remeasured total-Tau) change at week 52 from baseline, least square means (standard error)” value [3, 8] was 0.04(0.17) %. For the same compound, the “p-Tau/total-Tau (remeasured total-Tau) change at week 52 from baseline, difference from placebo group” value [3, 9] was 0.03%, the “p-Tau/total-Tau (remeasured total-Tau) change at week 52 from baseline, least square means (standard error)” value [3, 9] was −0.20(0.20) % and the “Aβ-38 change at week 52 from baseline, difference from placebo group” value [4, 8] was 525.66 pg/mL. For the same compound, the “Aβ-38 change at week 52 from baseline, least square means (standard error)” value [4, 8] was 178.64(221.978) pg/mL, the “Aβ-38 change at week 52 from baseline, difference from placebo group” value [4, 9] was 127.43 pg/mL and the “Aβ-38 change at week 52 from baseline, least square means (standard error)” value [4, 9] was −219.58(266.774) pg/mL. For the same compound, the “Aβ-42 change at week 52 from baseline, difference from placebo group” value [5, 8] was 32.90 pg/mL, the “Aβ-42 change at week 52 from baseline, least square means (standard error)” value [5, 8] was 11.55(25.578) pg/mL and the “Aβ-42 change at week 52 from baseline, difference from placebo group” value [5, 9] was 11.65 pg/mL. For the same compound, the “Aβ-42 change at week 52 from baseline, least square means (standard error)” value [5, 9] was −9.70(30.362) pg/mL, the “change in the concentration of p-Tau in the cerebrospinal fluid at week 52 from the baseline” value ([6]; Compound A group compared to the placebo group, mild to moderate AD patients) was “consistently tended to be decreased in a dose-dependent manner” and the “change in the concentration of p-Tau in the cerebrospinal fluid at week 52 from the baseline, statistical comparison” value ([6]; Compound A high dose group versus placebo group, analysis of covariance, significance level 5%) was “statistically significant difference”. The “p-Tau change at week 52 from baseline, difference from placebo group” value [6, 10] was -7.59 pg/mL, the “p-Tau change at week 52 from baseline, least square means (standard error)” value [6, 10] was −7.30(2.281) pg/mL and the “p-Tau change at week 52 from baseline, difference from placebo group” value [6, 11] was -4.23 pg/mL. The “p-Tau change at week 52 from baseline, least square means (standard error)” value [6, 11] was −3.94(2.715) pg/mL, the “Aβ-40 change at week 52 from baseline, difference from placebo group” value [7, 8] was 1206.87 pg/mL and the “Aβ-40 change at week 52 from baseline, least square means (standard error)” value [7, 8] was 290.84(466.956) pg/mL. For the same compound, the “Aβ-40 change at week 52 from baseline, difference from placebo group” value [7, 9] was 75.71 pg/mL and the “Aβ-40 change at week 52 from baseline, least square means (standard error)” value [7, 9] was −840.32(559.467) pg/mL.
